Measurements: article PMC13095444, “Discovery of RGS2-FBXO44 interaction inhibitors using a cell-based NanoBit assay” (Molecular Pharmacology, 2025)

Assays:
RGS2 protein levels = experiment: PathHunter ProLabel assay of RGS2 protein levels in HEK-293T-RGS2-PL cells; type: cell-based, Human; conditions: for RGS2 protein levels (PathHunter ProLabel): 100 μM compound overnight (16–18 hours)
Experimental: The PathHunter ProLabel assay was run as described previously ([Sjögren et al, 2012]; [Raveh et al, 2014]; [Sjögren et al, 2015]). Briefly, HEK-293T-RGS2-PL cells were plated at 10,000 cells per well in a white, tissue culture-treated 384-well plate (Perkin Elmer) in DMEM without phenol red (#21063; Gibco) and 0.1% BSA. The cells were allowed to attach for 4 hours, followed by treatment with DMSO, 10 μM MG-132, or 100 μM of compounds. Prior to the detection of RGS2 protein levels by the ProLabel assay, a fluorescent viability assay was performed in the same well, as described above. PathHunter ProLabel reagents (DiscoveRx) were prepared according to the manufacturer’s directions and added to the plate, followed by incubation at room temperature for 1 hour. Luminescence corresponding to RGS2-PL protein levels was detected using a Synergy Neo2 multimode plate reader.
Compounds that inhibit the interaction between RGS2 and FBXO44 would protect RGS2 from proteasomal degradation and result in increased RGS2 protein levels. We therefore next assayed our 20 hits for their ability to increase RGS2 protein levels. We first performed western blot analysis of HEK-293T cells transfected with RGS2-HA and FLAG-FBXO44 and treated overnight (16–18 hours) with 100 μM compound, using proteasome inhibitor MG-132 as a positive control (10 μM). […] Although somewhat disappointing, given the limited sensitivity of western blot, we opted to also test the compounds using an alternate assay paradigm. Specifically, we used the PathHunter ProLabel assay (DiscoveRx), an enzyme complementation assay in which a protein of interest is tagged with a 4 kDa part of β-galactosidase (ProLabel; PL). The chemiluminescent signal in the assay correlates with relative levels of the PL-tagged target protein. We previously developed a stable HEK-293T-RGS2-PL cell line that was used in several high-throughput screening campaigns ([Sjögren et al, 2012]; [Raveh et al, 2014]; [Sjögren et al, 2015]). The PathHunter ProLabel assay offers a more quantitative measurement of protein levels, with a larger dynamic range than a western blot. We treated HEK-293T-RGS2-PL cells overnight (16–18 hours) with 100 μM compound and used 10 μM MG-132 as a positive control.
As a further validation of the action of compound 10, we assessed whether the ability to increase RGS2 protein levels was dependent on FBXO44 using the PathHunter ProLabel assay. HEK-293T-RGS2-PL cells transfected with either nontargeting (NT) or FBXO44-targeting siRNA were treated overnight (16–18 hours) with vehicle or compound 10 (100 μM). […] Thus, compound 10 increases RGS2 protein levels through a mechanism that is dependent on FBXO44.

RGS2-FBXO44 interaction = target: T1, RGS2-FBXO44 interaction (Homo sapiens, UniProt P41220); experiment: Coimmunoprecipitation of RGS2-HA and FLAG-FBXO44; type: cell-based; conditions: 100 μM; anti-HA IP, FLAG-FBXO44 normalized to input, vs DMSO
T1 construct: expressed in transfected cells
T1 sequence (P41220 1-211): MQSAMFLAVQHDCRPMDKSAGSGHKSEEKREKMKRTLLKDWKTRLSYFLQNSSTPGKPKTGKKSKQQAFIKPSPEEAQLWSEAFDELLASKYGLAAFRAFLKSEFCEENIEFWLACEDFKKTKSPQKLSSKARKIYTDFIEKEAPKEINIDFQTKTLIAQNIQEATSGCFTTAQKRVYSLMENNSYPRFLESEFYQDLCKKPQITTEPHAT
Experimental: The cells were harvested in RIPA buffer containing protease inhibitors. The cells were then lysed by incubating on ice with occasional vortexing for 30 minutes. The cell lysates were centrifuged at 9600 × g for 10 minutes, and the supernatants were precleared by incubating with 40 μL prewashed protein A agarose beads (Roche) for 1 hour with slow rotation at 4 °C. The samples were then centrifuged at 10,000 rpm for 1 minute, and the supernatant was used to determine total protein concentration with the Pierce BCA Protein Assay Kit (Thermo Scientific). In total, 500 μg of total protein was used for each reaction. The samples were incubated with 100 μM compound 10 for 30 minutes with rotation at 4 °C. An equal amount of DMSO was used as a vehicle. Additionally, 20 μL was removed from each sample (input); 3 μL of rabbit anti-HA antibody (H6908; Sigma Aldrich) and 40μL of protein A agarose beads (Roche) were added to each sample prior to incubation on rotator at 4 °C overnight. The samples were centrifuged at 9600 × g for 5 minutes at 4 °C, and the supernatant was removed. The samples were washed once with 1 mL RIPA buffer and then 3× with 1 mL PBS. Bound proteins were eluted by heating the samples at 95 °C in 30 μL of SDS sample buffer for 10 minutes. The samples were centrifuged at 10,000 rpm for 5 minutes at 4 °C, and the supernatants were subjected to SDS-PAGE and western blot analysis. […]

Association between RGS2 and FBXO44 (co-IP) (RGS2-FBXO44 interaction): almost completely blocked
SMILES: CCC1CCCCN1S(=O)(=O)c1cc(Br)ccc1OC (stereo not shown) [Compound 10]
RGS2 protein levels (PathHunter ProLabel) (RGS2 protein levels): significantly increased RGS2 protein levels | RGS2 protein levels (PathHunter ProLabel) (RGS2 protein levels; listed as compound 10): significantly increased | Ability to increase RGS2 protein levels after siRNA-mediated FBXO44 knockdown (PathHunter ProLabel) (RGS2 protein levels; 100 μM overnight, FBXO44-targeting vs nontargeting siRNA): diminished ability
